Source: patent publication US11193136B2, “Cellulose synthase inhibitors and mutant plants” (VIB VZW, priority 2016, dated 2021)

Legend:
[1] = test system: Arabidopsis root elongation zone; experiment: Detection of cell wall weakening by PI uptake under gentle pressure on the root; assay type: in vivo
Method: Because the cellulose synthesized by the CESA1/CESA3 complex is a primary cell wall component, it was expected that C17-treated plants would display a weaker cell wall, which can be visualized by the uptake of propidium iodide (PI) following the application of a gentle pressure on the root.
For the detection of cell wall weakening, 3-day-old seedlings grown on half-strength MS medium were transferred to liquid medium without or with 200 nM C17. The root tips were stained with […] mL^−1 prodium iodide for three min. The stained root tips were put on the Nunc™ Lab-Tek™ Chambered Coverglass (Catalog #155361) without pressure or microscope slide with cover slip that gave a gentle exerting of pressure. By using confocal laser scanning microscopy (LSM710, ZEISS), the brittle cells could be visualized by the uptake of PI.

Arabidopsis root = experiment: Root structure and cell death by propidium iodide staining and confocal microscopy; assay type: in vivo
Method: (§1) C17 (5-(4-chlorophenyl)-7-(2-methoxyphenyl)-1,5,6,7-tetrahydro-[1,2,4]triazolo[1,5-a]pyrimidine; ChemDiv, Catalogue #: 7693622), a synthetic molecule, was identified from a chemical screen as a ploidy-inducing compound in Arabidopsis protoplasts. To test the effects of C17 on plants, Arabidopsis seeds were plated on half MS medium (Murashige, T. and F. Skoog, 1962) in the presence or absence of 200 nM C17 or its analogues. […] To dissect the C17 inhibitory effects, we employed confocal laser scanning microscopy (LSM710, ZEISS) to observe the root structure. Five-day-old Arabidopsis seedlings grown on vertical plates were transferred to half MS medium containing C17 for further growth. After three-day treatment, the root tips were analysed. Consistent to its growth inhibitory activity, C17 caused cell death at a concentration as little as 25 nM (FIG. 2). At the lowest concentration applied, root cortical cells of the transition zone were affected. This phenotype was aggravated and expanded to other tissues with an increasing dosage of C17 (FIG. 2).
(§2) For studying the growth inhibitory effects of C17 on plants, wild type and C17 resistant mutants were germinated on half MS medium (Murashige and Skoog, 1962) supplemented with or without indicated levels of C17 or its analogs. Seven-day-old seedlings were photographed. […]

[2] = test system: wild type Arabidopsis (Col-0); experiment: Growth of Arabidopsis seedlings on half MS medium with C17 or analogues; assay type: in vivo; details: 200 nM
Method: as §1, §2

[3] = test system: ixr1-1, ixr1-2, and ixr2-1 mutants; experiment: Sensitivity of isoxaben resistant mutants to C17; assay type: in vivo, Arabidopsis; details: 200 nM C17, 3 days
From the text: To date, several cellulose synthase inhibitors have been reported. In terms of molecular structure, the C17 compound differs completely from any known cellulose inhibitor.
For studying the growth inhibitory effects of C17 on plants, wild type and C17 resistant mutants were germinated on half MS medium (Murashige and Skoog, 1962) supplemented with or without indicated levels of C17 or its analogs. Seven-day-old seedlings were photographed. For observation of the root structure, five-day-old Arabidopsis seedlings were transferred to half MS medium containing different dosages of C17. After a three-day treatment, seedlings were photographed and their root tips were stained with propidium iodide (PI), a fluorescent dye that is excluded from the membranes of healthy cells but penetrates the plasma membrane of dead cells. The stained root tips were visualized by confocal laser scanning microscopy (LSM710, ZEISS). The ixr1-1 (collection number CS6201), ixr1-2 (CS6202) and ixr2-1 (CS6203) mutants were acquired from the ABRC. Five-day-old Arabidopsis seedlings were transferred to half MS medium with or without 200 nM C17. After 3 day, the plants were photographed.

## COc1ccccc1C1CC(c2ccc(Cl)cc2)N=C2N=CNN21 (stereo not drawn) [C17, 5-(4-chlorophenyl)-7-(2-methoxyphenyl)-1,5,6,7-tetrahydro-[1,2,4]triazolo[1,5-a]pyrimidine]
[1]; 200 nM C17, C17-tolerant mutants
  PI uptake and growth inhibition in C17-tolerant mutants: No PI-positive cells and growth inhibition
[1]; 200 nM C17, wild type, PI uptake
  time to cell wall weakening in the root elongation zone: ≤ 2 h
Arabidopsis root; 100 nM C17, three-day treatment
  cell elongation phenotype: radical rather than polar cell elongation
Arabidopsis root; five-day-old seedlings, three-day treatment, lowest concentration applied
  concentration causing cell death in the root: 25 nM
[2]
  effect on plant growth: severe growth inhibition accompanied by radial swelling of the root tip
[3]
  sensitivity of isoxaben resistant mutants (ixr1-1, ixr1-2, ixr2-1): still sensitive
